Several values for one entry are separate records, joined by “and”; a condition that tells them apart may be missing. Equal values may be shown once.
Columns and labels:
[1] = tolerability of BMOV and NAC in arthritic rats; type: in vivo
Experimental: Rats with definite arthritis on Day 10 post immunization were randomized into two groups. Control rats (n=8) received only NAC at a dose of 100 mg/kg/day s.c. NAC was prepared as a 3% aqueous solution. The experimental group (n=9) received NAC at 100 mg/kg/day s.c., as well as BMOV subcutaneously at 10 mg/kg/day. BMOV was solubilized in a 5% dextrose solution at 50° C.

[2] = body weights of mice, BMOV solution and beads (Example 19); type: in vivo
Experimental: On day 6 the mice were divided into 6 groups as follows: group 1, empty control; group 3, tumor control; group 3, injected subcutaneously with 0.25 mg/100μl BMOV, twice a day; group 4, injected IP with 20 mg palla beads containing 5 mg of BMOV; group 5, injected IP with 10 mg of BMOV beads on day 6 and day 9 respectively and; group 6, injected intramuscularly with 10 mg of BMOV beads on day 6 and day 9. On day 16, the mice were sacrificed and tumors were dissected.
The body weights of mice in control and treated groups, and the tumor weights from control and treated mice, are shown in Tables 5 and 6 respectively.

[3] = system: fos; assay: fos / c-fos mRNA expression in chondrocytes (Northern blot); type: cell-based, bovine; conditions: 100 μM
Method in brief: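 Bovine articular chondrocytes incubated 1 h with IL-1, PMA or AA (3 μM), or treated with IL 1 ± DPI, or with H2O2 for 30, 60 and 90 min. Total RNA run on formaldehyde agarose gels and probed by Northern blot with c-fos, c-jun or collagenase cDNA.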

[4] = system: non-proliferating chondrocytes; assay: viability of non-proliferating chondrocytes (high cell density); type: cell-based; conditions: 0-50 μM, 48 hours
Experimental: In order to compare the effect of orthovanadate on non-proliferating and proliferating chondrocytes, chondrocytes were plated at both high cell density (2×10^6 to 4×10^6 cells/per well on a six well plate) (nonproliferating) and at a lower cell density (5×10^5 to 1×10^6 cells/per well on a six well plate) (proliferating) and then maintained for 48 hours. The cells were then incubated in media (HAMS F12) containing 0-50 μM Orthovanadate for an additional 48 hours. The cells were harvested and the number of viable cells determined.

[5] = system: PLA2; assay: release of 3H-arachidonic acid from chondrocytes (PLA2 activity); type: cell-based, bovine; conditions: 100 μM
Experimental: (§1) The effect of orthovanadate and N-acetylcysteine on fos, jun and collagenase expression were examined. Bovine articular chondrocytes were isolated and plated as previously described (Kandel R. A. et al. Biochim. Biophys. Acta. 1053, 130-134, 1990). In order to determine the effect of orthovanadate on IL 1 and PMA (phorbol ester) induced responses, chondrocytes were incubated with orthovanadate (100 μM) for 2 hours before stimulation with IL 1 (10 ng/ml) or PMA ([…]). Collagenase production was determined by incubating chondrocytes for 24 hours with IL 1 or PMA and the cell conditioned medium was assayed for collagenase activity using an ELISA procedure as described previously (Kandel et al. supra). PLA2 activity was measured by incorporating ^3 H-arachidonic acid (^3 H-AA) into the cells and then incubating the cells with medium containing 1 mg/ml BSA, either alone or in the presence of IL 1 or PMA, for 10 min. as previously described (Conquer, J. A. […], Biochim. Biophys. Acta. 1134, 1-6). The amount of ^3 H-AA liberated into the supernatant was determined. To measure PGE2 production, chondrocytes were incubated for 6 hours in Ham's F12 medium, either alone or with IL 1 or PMA. The supernatant was analyzed by RIA using an antibody specific for PGE2 (Dr. S. A. Jones, Mount Sinai Hospital, Toronto, Canada). […]

[6] = system: PGE2; assay: PGE2 production by chondrocytes (RIA); type: cell-based, bovine; conditions: 100 μM
Experimental: as §1

[7] = system: tumor growth; assay: tumor growth in vivo, orthovanadate and N-acetylcysteine (Example 7); design: species or system mice
Experimental: Since N-acetylcysteine is converted to glutathione in cells, higher levels of glutathione may not only reduce orthovanadate induced toxicity but may also reduce tumor formation.
Twenty mice were injected subcutaneously with 2×10^5 cells on Day 1. At day 4, the mice were divided into four groups of five mice. Group one (control) received subcutaneous injections of 50 μl of water. Group two received daily intraperitoneal injections of 50 μl of 250 mM N-acetylcysteine. Group three received daily subcutaneous injections of 50 μl of 10 mg/ml of orthovanadate. Group four received daily intraperitoneal injections of 50 μl of […] N-acetylcysteine and 20 minutes later received 50 μl of subcutaneous injection of 50 μl of 10 mg/ml of orthovanadate. On day 10 the treatment was stopped. The animals were sacrificed on Day 13 and analyzed for tumor growth.

[8] = toxicity of orthovanadate by route of administration; type: in vivo, mice
Description: However, subcutaneous injections of up to 500 μgms orthovanadate is tolerated by the animals. Slow administration of the orthovanadate would decrease toxicity and the animals may tolerate higher doses.

Row | Compound | diarrhea ([1]; BMOV 10 mg/kg/day) | diarrhea ([1]; BMOV 15 mg/kg/day from Day 11) | Body weight, Average ([2]; BMOV solution 0.25 mg × 1) | Body weight ([2]; BMOV solution 0.25 mg × 1, individual mice) | inhibition of IL 1, PMA and AA induced c-fos expression [3] | effect on chondrocytes plated at high cell density [4] | inhibition of IL 1 or PMA induced release of 3H-AA [5] | inhibition of IL 1 or PMA induced PGE2 production [6] | detectable tumors ([7]; day 13) | animal deaths ([7]; orthovanadate 50 μl 10 mg/ml s.c. daily) | toxicity, oral administration ([8]; 0.5 mg/ml oral) | toxicity, intraperitoneal administration ([8]; high doses i.p.) | tolerated subcutaneous injection ([8]; subcutaneous)
1 | Cc1occc(=O)c1[O-].Cc1occc(=O)c1[O-].[O]=[V+2] [BMOV, bis(methylmaltolato) oxovanadium (IV)] | not observed | minor diarrhea | 17.87 | 18.8 and 17.8 and 18.4 and 17.3 | – | – | – | – | – | – | – | – | –
2 | [Na+].[Na+].[Na+].[O]=[V]([O-])([O-])[O-] [orthovanadate, sodium orthovanadate] | – | – | – | – | completely inhibited | did not effect | did not inhibit | did not inhibit | two had no detectable tumors | One orthovanadate treated animal died | gastric toxicity | toxic to the animals | up to 500 μgms

— patent publication US5871779A, “Treatment of arthropathies with vanadate compounds or analogues thereof” (Mount Sinai Hospital Corporation, priority 1996, dated 1999)
